Assay results from PubChem BioAssay (NCI).
Where “and” joins values, the source holds several entries; their conditions need not be identical. Equal values may be shown once.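 96-well plates; 48 h exposure; 5 concentrations. Endpoints by linear interpolation between flanking doses. Not reached: highest tested concentration assigned. Abbreviation: GI50, concentration required for 50% inhibition of growth. The concentration for full growth arrest is given as TGI.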

Columns and labels:
Assay in all cases: growth of human tumour cells (NCI), 48 h
MCF7 breast = test system: MCF7 breast
NCI-H522 lung = test system: NCI-H522 lung
A549 NSCLC = test system: A549 NSCLC
LOX IMVI melanoma = test system: LOX IMVI melanoma
IGROV1 ovarian = test system: IGROV1 ovarian
UACC-257 melanoma = test system: UACC-257 melanoma
OVCAR-4 ovarian = test system: OVCAR-4 ovarian
SF-295 CNS = test system: SF-295 CNS
NCI/ADR-RES ovarian = test system: NCI/ADR-RES ovarian
SR leukemia = test system: SR leukemia

Compound	GI50 (MCF7 breast) [µM]	TGI (MCF7 breast)	GI50 (NCI-H522 lung) [µM]	TGI (NCI-H522 lung)	GI50 (A549 NSCLC) [µM]	TGI (A549 NSCLC) [µM]	GI50 (LOX IMVI melanoma) [µM]	TGI (LOX IMVI melanoma)	GI50 (IGROV1 ovarian) [µM]	TGI (IGROV1 ovarian) [µM]	GI50 (UACC-257 melanoma) [µM]	TGI (UACC-257 melanoma)	TGI (OVCAR-4 ovarian)	TGI (SF-295 CNS) [µM]	GI50 (NCI/ADR-RES ovarian) [µM]	TGI (NCI/ADR-RES ovarian)	TGI (SR leukemia)	GI50 (OVCAR-4 ovarian) [µM]	GI50 (SF-295 CNS) [µM]	GI50 (SR leukemia) [µM]
O=S(=O)(/C=C/C=C/S(=O)(=O)c1ccccc1)c1ccccc1	0.525	3.81 µM and 2.3 µM	0.196	0.728 µM and 0.601 µM	3.97	15.2	1.42	2.42 µM and 3.33 µM	1.39	3.57	2	1.9 µM and 4.82 µM	3.28 µM and 3.18 µM	22.2	2.16	3.89 µM and 4.68 µM	2.29 µM and 0.934 µM			
CC(C)(Cl)CCC1=C(Cl)C(=O)c2ccccc2C1=O	1.99	4.05 µM	0.586	1.91 µM	3.2	11	1.73	3.26 µM	2.35	5.22	1.67	3.2 µM	2.89 µM	11	3.29	19.5 µM	5.69 µM	1.55	3.22	2.04
C/C(=C\c1ccn(-c2ccc(N)c(C(F)(F)F)c2)n1)[C@@H]1C[C@@H]2O[C@]2(C)CCC[C@H](C)[C@H](O)[C@@H](C)C(=O)C(C)(C)[C@@H](O)CC(=O)O1	0.00385	> 16 µM	0.0085	0.0576 µM	< 0.0116	> 32.5	0.0122	> 20.8 µM	0.0773	> 32.5	4.27	> 32.5 µM	> 32.5 µM	7.23	0.0624	8.31 µM	8.64 µM	0.132	0.0155	0.00813
Cc1nc(NC(=S)NC(=O)c2ccc(Cl)c(Cl)c2)sc1C(=O)/C=C/c1ccccc1[N+](=O)[O-]				33.7 µM		60.3		34.3 µM		66.7		89.1 µM	88.2 µM	58.9			63.1 µM			
O=C1C2CC3C(CC2C(=O)[N]1[Sn]([c]1ccccc1)([c]1ccccc1)[c]1ccccc1)C1(Cl)C(Cl)=C(Cl)C3(Cl)C1(Cl)Cl (stereo not drawn)	0.0376	0.154 µM	0.0924	0.226 µM	0.14	0.347	0.0588	0.184 µM	0.115	0.334	0.144	0.324 µM	0.289 µM	0.455			0.532 µM	0.0781	0.212	0.102
O=C1c2ccccc2C(=O)N1/N=C\c1ccc(Br)cc1				> 100 µM	> 100	> 100		> 10 µM	> 100	> 100	> 100	> 100 µM	> 100 µM	> 100			> 100 µM	> 100	> 100	> 100
CC(=O)O[C@H](C[C@H](C(C)C)N(C)C(=O)[C@@H](NC(=O)[C@H]1CCCCN1C)C(C)C)c1nc(C(=O)N[C@@H](Cc2ccccc2)C[C@H](C)C(=O)O)c(C)s1	< 0.0025	> 25 µM	< 0.0025	> 25 µM	0.00532	> 25	< 0.0025	> 25 µM	0.00302	> 25	> 25	> 25 µM	> 25 µM	> 25	0.0574	> 25 µM	> 25 µM	> 25	< 0.0025	< 0.0025
N=c1nc(N)c2cc3c(N)nc(=N)c3cc12		> 100 µM		46.4 µM		> 100		> 52.2 µM		> 100		28.1 µM	51.2 µM	51			56.5 µM			
COc1cccc(-c2nn(-c3ccccc3)cc2-c2ccnc(NCCNS(=O)(=O)c3ccc(C(F)(F)F)cc3)c2)c1	3.15	39.1 µM	2.33	12.5 µM	3.71	32	1.84	3.78 µM	4.19	> 100	3.14	15 µM	> 100 µM	8.67	2.79	14.4 µM	4.6 µM	2.94	2.91	1.77
O=C1C(=O)c2cc([N+](=O)[O-])ccc2-c2ccccc21	1.82	3.64 µM	1.28	2.68 µM	1.9	3.56	1.22	2.48 µM	1.9	3.54	1.7	3.13 µM	2.66 µM	3.48	1.66	3.33 µM		1.25	1.86	
COc1ccc2cc(C(=O)c3ccccc3C(=O)O)ccc2c1				> 100 µM		> 100		> 100 µM		> 100		> 100 µM	> 100 µM	> 100			> 100 µM			
CC1=CC2=C(OCO1)C(=O)c1ccccc1C2=O				8.87 µM		38.9		8.38 µM		27.6		7.29 µM	8.5 µM	8.61		9.94 µM	41.7 µM			
c1cncc(C2c3[nH]c4ccccc4c3CCN2CCCN2CCCCC2)c1 (stereo not drawn)				> 100 µM		> 100		> 100 µM		> 100		> 100 µM	> 100 µM	> 100			> 100 µM			
CCOC(=O)C12CCCC1(O)N(NC(=O)c1cccc(Cl)c1)C(C)=C2C(=O)OC (stereo not drawn)				> 100 µM		> 100		> 100 µM		> 100		> 100 µM	> 100 µM	> 100			> 100 µM			
CCCC(OCC)(OCC)OCC				> 100 µM		> 100		> 100 µM		> 100		> 100 µM	> 100 µM	> 100			> 100 µM			
C=C1C(=O)O[C@@H]2[C@H]1CC[C@H](C)[C@]1(O)CCC(=O)[C@@]21C		> 10 µM				> 10		> 10 µM		> 10			> 10 µM	> 10		> 10 µM	> 10 µM			
